Measurements: patent publication US11950596B2, “Methods of protecting seeds from oxidants and microorganisms” (The United States of America, as represented by the …, priority 2020, dated 2024)
Where two headings read alike, the source gives them in different places. Marks after values point to notes of the source that are not given here.

How the values were obtained:
A. flavus 3357 [1] = test: Antifungal seed disinfection bioassay (OG plus mild heat), A. flavus infection of cabbage seeds; format: in vivo, Aspergillus flavus; settings: for No. of seedlings infected: 12 seeds; for % A. flavus infection: mean over 20/50° C. and 20/30 min
Protocol: Antifungal seed disinfection bioassays using OG: Effect of OG plus mild heat hurdle technology on the level of seed sanitation (Brassica rapa Pekinensis; Chinese cabbage hybrid) was evaluated. Twelve cabbage seeds (per treatment), unsterilized, were transferred to each 1.5 mL microcentrifuge tube filled with 1 mL (final volume) distilled water, without or with A. flavus (1×10^5 CFU/mL): (1) No OG, no A. flavus inoculum, 20 or 30 min, 20° C.; (2) No OG, no A. flavus inoculum, 20 or 30 min, 50° C.; (3) No OG, w/A. flavus, 20 or 30 min, 20° C.; (4) No OG, w/A. flavus, 20 or 30 min, 50° C.; (5) OG 2 mM, w/A. flavus, 20 or 30 min, 20° C., (6) OG 2 mM, w/A. flavus, 20 or 30 min, 50° C., (7) OG 3 mM, w/A. flavus, 20 or 30 min, 20° C.; (8) OG 3 mM, w/A. flavus, 20 or 30 min, 50° C.; (9) OG 4 mM, w/A. flavus, 20 or 30 min, 20° C.; and (10) OG 4 mM, w/A. flavus, 20 or 30 min, 50° C. After each treatment, the treated seeds (total 12 seeds per treatment) were transferred to PDA and the plates were incubated in the dark at room temperature (RT; 20° C.) for seed germination. After seed germination, the growth of seedlings and fungal germination on the surfaces of germinated seeds were monitored up to 7 days (RT).
Seed disinfection via heat-sensitizing activity of OG: Heat-sensitizing capacity of OG was investigated further with crop seeds (Brassica rapa Pekinensis; Chinese cabbage hybrid) contaminated with A. flavus 3357 on the seed surfaces. OG (0, 2, 3, 4 mM) and mild heat (50° C.; Control: 20° C.) were co-applied for 20 to 30 minutes, and the rates of seed germination were also determined.

A. tumefaciens 4212 = test: Heat-sensitizing bioassay of OG (MBC) in bacteria; format: cell-based, Agrobacterium tumefaciens; settings: 90 seconds, read-out: minimum bactericidal concentration (MBC) of OG
Protocol: (§1) As described in A. flavus 3357 test (see above), microfuge tubes were treated with mild heat (57.5° C.) or maintained at RT (22.0° C.) (90 seconds). After heat treatments, entire volume (200 μL) from each microfuge tube was spread onto fresh recovery LB agar (for bacteria) or PDA (for fungi), and plates were incubated at the optimum temperature for respective microorganisms (i.e., 35° C. for Aspergillus, 37° C. for E. coli, 28° C. for Penicillium/A. tumefaciens, respectively). The growth/survival of test microorganisms were monitored after 48 to 72 hrs of incubation.
Heat-sensitizing activity of OG against bacteria (A. tumefaciens, E. coli): Heat-sensitizing activity of OG was also investigated against bacterial cells (i.e., E. coli and plant-pathogenic A. tumefaciens). […] (Table 4; FIG. 2).

P. italicum 983 = test: Heat-sensitizing bioassay of OG (MFC) in other fungi; format: cell-based, Penicillium italicum; settings: 90 seconds
Protocol: as §1
(§2) Heat-sensitizing activity of OG against other fungi: Heat-sensitizing activity of OG was then investigated in other fungi (five Aspergillus strains and seven Penicillium strains) including fungicide resistant strains (i.e., P. expansum FR2, FR3 resistant to the conventional fungicide fludioxonil) (see Table 1).

A. flavus 4212 = test: as above; format: cell-based, Aspergillus flavus; settings: 90 seconds
Protocol: as §1, §2

A. flavus 3357 [2] = test: Heat-sensitizing antimicrobial bioassay (MFC) in A. flavus 3357; format: cell-based, Aspergillus flavus; settings: for MFC: Aspergillus flavus, 3357, 0.025 h, read-out: minimum fungicidal concentration (MFC; >99.999% fungal death)
Protocol: Antimicrobial bioassay: The heat-sensitizing effect of twenty-eight compounds (phenolic derivatives, alkyl gallates, other food additives) (0.025, 0.050, 0.075, 0.100, 0.200, 0.300, 0.400, 0.500, 0.600 or 0.700 mM) and six drugs/fungicides (1, 2, 4, 8, 16, 32, 64 ppm) (Table 2) were examined using A. flavus 3357. Two hundred μL of fungal spores (1.5×10^5 to 2.1×10^5 CFU) dispersed in PBS was transferred into individual microfuge tube (1.5 mL vol.), where (1) “control” tube contained DMSO only, while (2) “treatment” tube contained test chemical/drug at respective concentration. The tubes were then treated with mild heat (57.5° C.) or maintained at room temperature (RT; 22.0° C.) for 90 seconds. After treatments, entire volume (200 μL) from each microfuge tube was spread onto fresh recovery PDA, and plates were incubated at respective temperatures. Fungal growth/survival was monitored after 48 hrs of incubation.
as §1
Determination of optimum temperature and time duration for screening heat sensitizers in A. flavus 3357: For the determination of the optimum temperature and time points for screening heat sensitizers, fungal (A. flavus 3357) survivability was tested by exposing fungal spores (1.5×10^5 to 2.1×10^5 CFU) to different temperatures (50, 55, 57.5, 60, 65° C.) and time points (0.5, 1.0, 1.5, 2.0, 2.5, 3.0, 3.5, 4.0, 4.5, 5.0 min).

CCCCCCCCOC(=O)c1cc(O)c(O)c(O)c1 [Octyl gallate]
No. of seedlings infected (A. flavus 3357 [1]; OG 2 mM, 20° C., 20 min): 12
No. of seedlings infected (A. flavus 3357 [1]; OG 2 mM, 20° C., 30 min): 10
No. of seedlings infected (A. flavus 3357 [1]; OG 2 mM, 50° C., 20 min): 4
No. of seedlings infected (A. flavus 3357 [1]; OG 2 mM, 50° C., 30 min): 1
% A. flavus infection (A. flavus 3357 [1]; OG 2 mM): 57 ± 43%
No. of seedlings infected (A. flavus 3357 [1]; OG 3 mM, 20° C., 20 min): 10
No. of seedlings infected (A. flavus 3357 [1]; OG 3 mM, 20° C., 30 min): 10
No. of seedlings infected (A. flavus 3357 [1]; OG 3 mM, 50° C., 20 min): 0^d
No. of seedlings infected (A. flavus 3357 [1]; OG 3 mM, 50° C., 30 min): 0^d
% A. flavus infection (A. flavus 3357 [1]; OG 3 mM): 42 ± 48%
growth of A. flavus contaminated on crop seeds (A. flavus 3357 [1]; OG 3 mM, mild heat 50° C., 20 to 30 minutes): completely inhibited
No. of seedlings infected (A. flavus 3357 [1]; OG 4 mM, 20° C., 20 min): 12
No. of seedlings infected (A. flavus 3357 [1]; OG 4 mM, 20° C., 30 min): 11
No. of seedlings infected (A. flavus 3357 [1]; OG 4 mM, 50° C., 20 min): 0^d
No. of seedlings infected (A. flavus 3357 [1]; OG 4 mM, 50° C., 30 min): 0^d
% A. flavus infection (A. flavus 3357 [1]; OG 4 mM): 48 ± 56%
growth of A. flavus on crop seeds (A. flavus 3357 [1]; OG as low as 3 mM, mild heat 50° C., 20 min): completely inhibited
MBC (A. tumefaciens 4212; Agrobacterium tumefaciens, 4212, 22° C.): 200 µM
MBC (A. tumefaciens 4212; Agrobacterium tumefaciens, 4212, 57.5° C.): 75 µM
MFC (P. italicum 983; Penicillium italicum, 983, 22.0° C.): 200 µM
MFC (P. italicum 983; Penicillium italicum, 983, 57.5° C.): 100 µM
MFC (A. flavus 4212; Aspergillus flavus, 4212, 22.0° C.): > 300 µM
MFC (A. flavus 4212; Aspergillus flavus, 4212, 57.5° C.): 180 µM
minimum fungicidal concentration (MFC; >99.999% fungal death) (A. flavus 3357 [2]): 180* μM
MFC (A. flavus 3357 [2]; 22.0° C. (RT), 90 seconds, PBS): 250 µM
MFC (A. flavus 3357 [2]): 180 µM
